The values that follow come from patent US12172983B2, “EGFR inhibitors” (Blueprint Medicines Corporation, priority 2019, dated 2024).

One assay deals with T1, EGFR (L858R T790M C797S) (Homo sapiens, UniProt P00533, C797S/L858R/T790M).
T1 construct: purchased SignalChem E10-122VG
The assay is described as follows: Biochemical EGFR inhibition assay (Caliper mobility shift), EGFR LRTMCS mutant. To be noted: inhibitory activity against EGFR LRTMCS mutant; apparent IC50; read-out: Ext Enz LRTMCS. Summed up:
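Apparent IC50s were derived by plotting percent activity against the log of compound concentration. Activity was measured as phosphopeptide electrophoretically separated from substrate, after reactions at room temperature reached 10% to 20% phosphorylation and were halted with 35 mM EDTA.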

Assay [1] deals with phosphorylation of EGFR (Tyr1068) in NCI-H1975 cell line that harbors the EGFR L858R T790M mutations. As to the kind of experiment: NCI-H1975 pEGFR AlphaLISA assay. Type of assay: cell-based. Conditions: 4-5 hours incubation, read-out: Ext pEGFR H1975. Summed up: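 NCI-H1975 cells (EGFR L858R/T790M) seeded overnight, then treated with compound for 4-5 h at 37 °C/5% CO2. After lysis, p-EGFR (Tyr1068) quantified by AlphaLISA SureFire Ultra with acceptor then donor beads; IC50 fitted from percent inhibition versus log concentration.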

Where [2] appears, read: inhibition of phosphorylation of mutant EGFR in NCI-H1975 cells.
Where [3] appears, read: Homo sapiens, NCI-H1975, inhibition of phosphorylation of mutant EGFR in NCI-H1975 cells.

The structures appear in SMILES notation. Read-outs that look alike come from different tables or passages of the source.

T1 sequence (P00533 25-1210 T790M/C797S/L858R): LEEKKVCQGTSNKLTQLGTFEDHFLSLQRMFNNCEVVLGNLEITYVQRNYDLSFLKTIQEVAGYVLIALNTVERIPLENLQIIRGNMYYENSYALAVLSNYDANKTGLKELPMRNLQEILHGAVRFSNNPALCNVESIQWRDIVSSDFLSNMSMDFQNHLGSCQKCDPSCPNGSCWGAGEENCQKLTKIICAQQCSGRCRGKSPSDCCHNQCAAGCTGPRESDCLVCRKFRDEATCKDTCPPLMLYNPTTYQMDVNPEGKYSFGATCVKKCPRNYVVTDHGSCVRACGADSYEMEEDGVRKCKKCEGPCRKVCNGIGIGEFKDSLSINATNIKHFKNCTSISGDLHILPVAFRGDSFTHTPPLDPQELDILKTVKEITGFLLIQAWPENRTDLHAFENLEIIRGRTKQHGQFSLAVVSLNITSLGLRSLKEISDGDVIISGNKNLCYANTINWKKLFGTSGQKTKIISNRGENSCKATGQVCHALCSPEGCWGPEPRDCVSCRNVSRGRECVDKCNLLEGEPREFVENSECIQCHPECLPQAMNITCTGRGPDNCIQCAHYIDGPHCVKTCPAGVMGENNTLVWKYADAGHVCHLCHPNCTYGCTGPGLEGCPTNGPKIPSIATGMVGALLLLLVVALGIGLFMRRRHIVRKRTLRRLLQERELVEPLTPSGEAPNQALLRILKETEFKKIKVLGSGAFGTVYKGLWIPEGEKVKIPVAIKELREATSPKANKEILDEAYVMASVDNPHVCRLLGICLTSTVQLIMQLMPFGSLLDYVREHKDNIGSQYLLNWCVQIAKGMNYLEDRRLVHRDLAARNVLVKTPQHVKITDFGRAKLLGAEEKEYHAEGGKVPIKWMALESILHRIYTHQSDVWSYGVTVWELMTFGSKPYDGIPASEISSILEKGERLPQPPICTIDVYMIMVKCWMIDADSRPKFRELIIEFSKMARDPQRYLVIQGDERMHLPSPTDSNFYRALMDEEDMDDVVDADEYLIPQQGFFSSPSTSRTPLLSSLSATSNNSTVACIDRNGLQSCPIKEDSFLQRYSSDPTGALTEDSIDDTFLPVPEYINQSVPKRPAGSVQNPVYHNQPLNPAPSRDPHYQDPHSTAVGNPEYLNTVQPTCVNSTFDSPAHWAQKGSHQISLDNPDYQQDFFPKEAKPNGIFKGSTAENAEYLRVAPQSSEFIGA

For the molecule `CO[C@H]1CCN(c2nccc(Nc3cc4c(C(C)C)ccc(N5C[C@H](CS(C)(=O)=O)[C@H]5C)c4cn3)n2)C[C@H]1C#N` (single isomer, unassigned) [Compound 164, (3S,4S)-1-[4-({8-[(2R,3S)-3-(methanesulfonylmethyl)-2-methylazetidin-1-yl]-5-(propan-2-yl)isoquinolin-3-yl}amino)pyrimidin-2-yl]-4-methoxypiperidine-3-carbonitrile or (3R,4R)-1-[4-({8-[(2R,3S)-3-(methanesulfonylmethyl)-2-methylazetidin-1-yl]-5-(propan-2-yl)isoquinolin-3-yl}amino)pyrimidin-2-yl]-4-methoxypiperidine-3-carbonitrile], the IC50 on EGFR (L858R T790M C797S) was 15.1 to 20 nM; in assay [1] (setting [2]), no more than 10 nM.
Take `CO[C@H]1CCN(c2nccc(Nc3cc4c(C(C)C)ccc(N5C[C@H](CS(C)(=O)=O)[C@H]5C)c4cn3)n2)C[C@H]1C#N` (single isomer, unassigned) [Compound 165, (3R,4R)-1-[4-({8-[(2R,3S)-3-(methanesulfonylmethyl)-2-methylazetidin-1-yl]-5-(propan-2-yl)isoquinolin-3-yl}amino)pyrimidin-2-yl-4-methoxypiperidine-3-carbonitrile or (3S,4S)-1-[4-({8-[(2R,3S)-3-(methanesulfonylmethyl)-2-methylazetidin-1-yl]-5-(propan-2-yl)isoquinolin-3-yl}amino)pyrimidin-2-yl]-4-methoxypiperidine-3-carbonitrile]: the IC50 was no more than 15 nM on EGFR (L858R T790M C797S) and 20.1 to 30 nM in assay [1] (setting [2]).
`CO[C@@H]1CCN(c2nccc(Nc3cc4c(C(C)C)ccc(N5C[C@H](CS(C)(=O)=O)[C@H]5C)c4cn3)n2)C[C@H]1C#N` (single isomer, unassigned) [Compound 166, (3S,4R)-1-[4-({8-[(2R,3S)-3-(methanesulfonylmethyl)-2-methylazetidin-1-yl]-5-(propan-2-yl)isoquinolin-3-yl}amino)pyrimidin-2-yl]-4-methoxypiperidine-3-carbonitrile or (3R,4S)-1-[4-({8-[(2R,3S)-3-(methanesulfonylmethyl)-2-methylazetidin-1-yl]-5-(propan-2-yl)isoquinolin-3-yl}amino)pyrimidin-2-yl]-4-methoxypiperidine-3-carbonitrile]: the IC50 at EGFR (L858R T790M C797S) was 30.1 to 100 nM; in assay [1] (setting [3]) it was 30.1 to 50 nM.
The corresponding values for `CO[C@H]1CCN(c2nccc(Nc3cc4c(C(C)C)ccc(N5C[C@H](CS(C)(=O)=O)[C@H]5C)c4cn3)n2)C[C@@H]1CO` (single isomer, unassigned) [Compound 172, [(3R,4S)-1-[4-({8-[(2R,3S)-3-(methanesulfonylmethyl)-2-methylazetidin-1-yl]-5-(propan-2-yl)isoquinolin-3-yl}amino)pyrimidin-2-yl]-4-methoxypiperidin-3-yl]methanol or [(3S,4R)-1-[4-({8-[(2R,3S)-3-(methanesulfonylmethyl)-2-methylazetidin-1-yl]-5-(propan-2-yl)isoquinolin-3-yl}amino)pyrimidin-2-yl]-4-methoxypiperidin-3-yl]methanol] are no more than 15 nM and 20.1 to 30 nM.
The corresponding values for `CO[C@@H]1CCN(c2nccc(Nc3cc4c(C(C)C)ccc(N5C[C@H](CS(C)(=O)=O)[C@H]5C)c4cn3)n2)C[C@@H]1CO` (single isomer, unassigned) [Compound 173, [(3R,4R)-1-[4-({8-[(2R,3S)-3-(methanesulfonylmethyl)-2-methylazetidin-1-yl]-5-(propan-2-yl)isoquinolin-3-yl}amino)pyrimidin-2-yl]-4-methoxypiperidin-3-yl]methanol or [(3S,4S)-1-[4-({8-[(2R,3S)-3-(methanesulfonylmethyl)-2-methylazetidin-1-yl]-5-(propan-2-yl)isoquinolin-3-yl}amino)pyrimidin-2-yl]-4-methoxypiperidin-3-yl]methanol] are 15.1 to 20 nM and 20.1 to 30 nM.
Turning to `CO[C@@H]1CCN(c2nccc(Nc3cc4c(C(C)C)ccc(N5C[C@H](CS(C)(=O)=O)[C@H]5C)c4cn3)n2)C[C@H]1CO` (single isomer, unassigned) [Compound 174, [(3S,4R)-1-[4-({8-[(2R,3S)-3-(methanesulfonylmethyl)-2-methylazetidin-1-yl]-5-(propan-2-yl)isoquinolin-3-yl}amino)pyrimidin-2-yl]-4-methoxypiperidin-3-yl]methanol or [(3R,4S)-1-[4-({8-[(2R,3S)-3-(methanesulfonylmethyl)-2-methylazetidin-1-yl]-5-(propan-2-yl)isoquinolin-3-yl}amino)pyrimidin-2-yl]-4-methoxypiperidin-3-yl]methanol], the IC50 at EGFR (L858R T790M C797S) was no more than 15 nM; in assay [1] (setting [3]), 10.1 to 20 nM.
`CCS(=O)(=O)C[C@H]1CN(c2ccc(C(C)C)c3cc(Nc4ccnc(N5CC[C@@H](OC)[C@@H](O)C5)n4)ncc23)[C@@H]1C` (single isomer, unassigned) [Compound 176, (3S,4R)-1-[4-({8-[(2R,3S)-3-[(ethanesulfonyl)methyl]-2-methylazetidin-1-yl]-5-(propan-2-yl)isoquinolin-3-yl}amino)pyrimidin-2-yl]-4-methoxypiperidin-3-ol, or (3R,4S)-1-[4-({8-[(2R,3S)-3-[(ethanesulfonyl)methyl]-2-methylazetidin-1-yl]-5-(propan-2-yl)isoquinolin-3-yl}amino)pyrimidin-2-yl]-4-methoxypiperidin-3-ol]: the values for the IC50 (on EGFR (L858R T790M C797S); in assay [1] (setting [3])) were no more than 15 nM and no more than 10 nM, respectively.
In the case of `CCS(=O)(=O)C[C@H]1CN(c2ccc(C(C)C)c3cc(Nc4ccnc(N5CC[C@H](OC)[C@@H](O)C5)n4)ncc23)[C@@H]1C` (single isomer, unassigned) [Compound 177, (3S,4S)-1-(4-(8-((2R,3S)-3-(ethylsulfonylmethyl)-2-methylazetidin-1-yl)-5-isopropylisoquinolin-3-ylamino)pyrimidin-2-yl)-4-methoxypiperidin-3-ol or (3R,4R)-1-(4-(8-((2R,3S)-3-(ethylsulfonylmethyl)-2-methylazetidin-1-yl)-5-isopropylisoquinolin-3-ylamino)pyrimidin-2-yl)-4-methoxypiperidin-3-ol], the results for the IC50 (at EGFR (L858R T790M C797S); in assay [1] (setting [3])) were no more than 15 nM and no more than 10 nM, respectively.
Regarding `CCS(=O)(=O)C[C@H]1CN(c2ncc(C(C)C)c3cc(Nc4ccnc(N5CC[C@@H](OC)[C@@H](O)C5)n4)ncc23)[C@@H]1C` (single isomer, unassigned) [Compound 178], the IC50 on EGFR (L858R T790M C797S) was no more than 15 nM; in assay [1] (setting [3]), no more than 10 nM.
With `CCS(=O)(=O)C[C@H]1CN(c2ncc(C(C)C)c3cc(Nc4ccnc(N5CC[C@H](OC)[C@@H](O)C5)n4)ncc23)[C@@H]1C` (single isomer, unassigned) [Compound 179], the IC50 on EGFR (L858R T790M C797S) is no more than 15 nM; in assay [1] (setting [3]) it was no more than 10 nM.
In the case of `CC(C)c1ccc(N2CC(CS(C)(=O)=O)C2)c2cnc(Nc3ccnc(N4CCC5(OCCO5)[C@H](F)C4)n3)cc12` (single isomer, unassigned) [Compound 180, N-{2-[(6R)-6-fluoro-1,4-dioxa-8-azaspiro[4.5]decan-8-yl]pyrimidin-4-yl}-8-[3-(methanesulfonylmethyl)azetidin-1-yl]-5-(propan-2-yl)isoquinolin-3-amine or N-{2-[(6S)-6-fluoro-1,4-dioxa-8-azaspiro[4.5]decan-8-yl]pyrimidin-4-yl}-8-[3-(methanesulfonylmethyl)azetidin-1-yl]-5-(propan-2-yl)isoquinolin-3-amine], the values for the IC50 (at EGFR (L858R T790M C797S); in assay [1] (setting [3])) were no more than 15 nM and 10.1 to 20 nM, respectively.
